Test results from patent publication US9206167B2, “Piperazine-substituted benzothiophenes for treatment of mental disorders” (Otsuka Pharmaceutical Co., Ltd., priority 2005, dated 2015).
pKi: −log10 of the molar value.

Legend:
Serotonin (5-HT) uptake = Serotonin (5-HT) uptake (Rattus norvegicus (Rat), UniProt P31652); test: Serotonin (5-HT) uptake inhibitory activity by rat brain synaptosome; format: biochemical; conditions: test compound 300 nM, rat frontal cortex synaptosome; read-out: Serotonin uptake inhibitory ratio (%) (300 nM)
Sequence of Serotonin (5-HT) uptake (P31652 whole entry): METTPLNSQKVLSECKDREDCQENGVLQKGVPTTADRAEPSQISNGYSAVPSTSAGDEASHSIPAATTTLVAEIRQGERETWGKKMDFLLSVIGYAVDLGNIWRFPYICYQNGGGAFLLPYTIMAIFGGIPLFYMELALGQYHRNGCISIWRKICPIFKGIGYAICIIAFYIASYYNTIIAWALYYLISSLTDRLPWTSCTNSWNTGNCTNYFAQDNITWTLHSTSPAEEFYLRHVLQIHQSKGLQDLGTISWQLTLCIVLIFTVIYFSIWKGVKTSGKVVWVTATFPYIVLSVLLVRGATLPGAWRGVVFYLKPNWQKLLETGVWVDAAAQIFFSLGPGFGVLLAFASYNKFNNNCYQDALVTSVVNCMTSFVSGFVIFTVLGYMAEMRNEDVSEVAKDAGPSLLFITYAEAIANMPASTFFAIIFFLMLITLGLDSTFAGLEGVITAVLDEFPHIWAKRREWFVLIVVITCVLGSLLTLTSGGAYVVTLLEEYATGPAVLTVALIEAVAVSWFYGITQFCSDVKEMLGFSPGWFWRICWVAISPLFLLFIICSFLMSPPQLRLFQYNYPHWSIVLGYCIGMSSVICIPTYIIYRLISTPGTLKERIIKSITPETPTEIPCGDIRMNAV
Experimental: Measurement of Serotonin (5-HT) Uptake Inhibitory Activity of a Test Compound by Rat Brain Synaptosome
Wistar male rats were decapitated, the brain was retrieved and frontal cortex was dissected out, and it was homogenized in 0.32 M sucrose solution of a weight 20 times of the weight of the tissue using a Potter type homogenizer. The homogenate was centrifuged at 4° C., 1,000×g for 10 minutes, the obtained supernatant was further centrifuged at 4° C., 20,000×g for 20 minutes, and the pellet was suspended in an incubation buffer (20 mM Hepes buffer (pH 7.4) containing 10 mM glucose, 145 mM sodium chloride, 4.5 mM potassium Chloride, 1.2 mM magnesium chloride, 1.5 mM calcium chloride), which was used as crude synaptosome fraction.
5-HT uptake reaction was performed in a volume of 200 μl using a 96-well round bottom plate and pargyline (final concentration 10 μM) and sodium ascorbate (final concentration 0.2 mg/ml) were contained in the incubation buffer upon reaction and used.
Incubation buffer (total counting), non-labeled 5-HT (final concentration 10 μM, non-specific counting) and the diluted test compound (final concentration 300 nM) were added to each well. One-tenth quantity of the final volume of the synaptosome fraction was added and after preincubated at 37° C. for 10 minutes, tritium labeled 5-HT solution (final concentration 8 nM) was added and uptake reaction was started at 37° C. The uptake time was 10 minutes and the reaction was terminated by vacuum filtration through a 96-well fiber glass filter paper plate, and after the filter paper was washed with cold normal saline, it was dried enough and Microscint0 (Perkin-Elmer) was added to the filter and remaining radioactivity on the filter was measured.

[1] = molecular target: Serotonin 5-HT2A receptor (Rattus norvegicus (Rat), UniProt P14842); test: Serotonin 5-HT2A receptor binding assay ([3H]-Ketanserin, rat frontal cortex membrane); conditions: Ki from IC50 by Cheng-Prussoff formula
Sequence of Serotonin 5-HT2A receptor (P14842 whole entry): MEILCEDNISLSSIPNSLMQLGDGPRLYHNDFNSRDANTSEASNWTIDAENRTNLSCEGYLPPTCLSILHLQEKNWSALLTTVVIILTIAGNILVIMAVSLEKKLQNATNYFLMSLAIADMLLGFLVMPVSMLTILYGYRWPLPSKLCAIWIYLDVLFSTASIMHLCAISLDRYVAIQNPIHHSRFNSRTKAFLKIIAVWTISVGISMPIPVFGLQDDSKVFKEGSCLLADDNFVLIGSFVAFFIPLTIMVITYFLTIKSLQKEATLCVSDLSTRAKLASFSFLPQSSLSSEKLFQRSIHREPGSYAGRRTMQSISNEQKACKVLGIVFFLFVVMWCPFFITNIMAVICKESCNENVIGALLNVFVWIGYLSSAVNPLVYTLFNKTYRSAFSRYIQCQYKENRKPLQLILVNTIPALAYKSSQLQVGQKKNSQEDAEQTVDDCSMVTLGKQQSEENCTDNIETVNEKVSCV
Experimental: 2) Serotonin 5-HT2A Receptor Binding Assay
The assay was performed according to the method by Leysen J E et al. (Leysen J E, Niemegeers C J E, Van Nueten J M and Laduron P M. [3H] Ketanserin (R 41 468), a selective 3H-ligand for serotonin 2 receptor binding sites. Mol. Pharmacol., 1982, 21: 301-314).
Wistar male rats were decapitated, the brain was retrieved immediately and frontal cortex was taken out. It was homogenized in 0.25 M sucrose of a volume 10 times of the weight of the tissue using a Teflon glass homogenizer, and centrifuged at 4° C., 1,000×g for 10 minutes. The obtained supernatant was transferred to another centrifuge tube and suspended in 0.25 M sucrose of a volume 5 times of the weight of the tissue and the precipitate was centrifuged in the above-described condition. The obtained supernatant was combined with the supernatant obtained above and adjusted to a volume 40 times of the weight of the tissue with 50 mM Tris-hydrochloric acid buffer (pH 7.4), and centrifuged at 4° C., 35,000×g for 10 minutes. The obtained precipitate was suspended again in the above-described buffer of a volume 40 times of the weight of the tissue and centrifuged in the above-described condition. The obtained precipitate was suspended in the above-described buffer of a volume 20 times of the weight of the tissue and preserved by freezing at −85° C. till it was used for binding assay as a membrane specimen.
The binding assay was performed using 40 μl of the membrane specimen, 20 μl of [^3H]-Ketanserin (final concentration 1 to 3 nM), 20 μl of a test drug and 50 mM Tris-hydrochloric acid buffer (pH 7.4) so that the total amount was 200 μl (final dimethylsulfoxide concentration 1%). The reaction was performed at 37° C. for 20 minutes and terminated by conducting suction filtration with a cell harvester on a glass fiber filter plate.
The filter plate made of glass fiber was washed with 50 mM Tris-hydrochloric acid buffer (pH 7.4), and after dried, a microplate liquid scintillation cocktail was added and the radioactivity was measured with a microplate scintillation counter. Radioactivity in the presence of 10 μM spiperone was assumed as nonspecific binding.
(§1) IC50 value was calculated from concentration-dependent reaction using a non-linear analysis program. Ki value was calculated from IC50 value using Cheng-Prussoff formula.

Dopamine D2 receptor = Dopamine D2 receptor (Rattus norvegicus (Rat), UniProt P61169); test: Dopamine D2 receptor binding assay ([3H]-raclopride, rat corpus striatum membrane); conditions: Ki from IC50 by Cheng-Prussoff formula
Sequence of Dopamine D2 receptor (P61169 whole entry): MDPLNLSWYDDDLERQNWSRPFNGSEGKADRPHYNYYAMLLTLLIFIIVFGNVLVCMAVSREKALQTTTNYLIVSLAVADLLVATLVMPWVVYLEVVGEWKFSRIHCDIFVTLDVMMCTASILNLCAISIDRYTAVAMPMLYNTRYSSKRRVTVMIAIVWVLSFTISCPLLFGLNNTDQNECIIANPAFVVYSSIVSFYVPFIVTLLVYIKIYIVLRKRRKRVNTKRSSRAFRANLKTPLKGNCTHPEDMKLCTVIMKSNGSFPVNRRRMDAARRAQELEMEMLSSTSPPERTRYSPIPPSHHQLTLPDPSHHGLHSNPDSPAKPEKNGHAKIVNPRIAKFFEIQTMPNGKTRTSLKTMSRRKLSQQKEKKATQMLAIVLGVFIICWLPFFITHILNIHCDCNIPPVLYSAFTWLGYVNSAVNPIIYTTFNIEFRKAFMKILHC
Experimental: Pharmacological Test 1 1) Dopamine D2 Receptor Binding Assay
Wistar male rats were decapitated, the brain was retrieved immediately and corpus striatum was taken out. It was homogenized in 50 mM tris(hydroxymethyl)aminomethane (Tris)-hydrochloric acid buffer (pH 7.4) of a volume 50 times of the weight of the tissue using a homogenizer with a high-speed rotating blade, and centrifuged at 4° C., 48,000×g for 10 minutes. The obtained precipitate was suspended again in the above-described buffer of a volume 50 times of the weight of the tissue and after incubated at 37° C. for 10 minutes, centrifuged in the above-described condition. The obtained precipitate was suspended in 50 mM (Tris)-hydrochloric acid buffer (containing 120 mM NaCl, 5 mM KCl, 2 mM CaCl2, 1 mM MgCl2, pH 7.4) of a volume 25 times of the weight of the tissue and preserved by freezing at −85° C. till it was used for binding assay as a membrane specimen.
The binding assay was performed using 40 μl of the membrane specimen, 20 μl of [^3H]-raclopride (final concentration 1 to 2 nM), 20 μl of a test drug and 50 mM Tris-hydrochloric acid buffer (containing 120 mM NaCl, 5 mM KCl, 2 mM CaCl2, 1 mM MgCl2, pH 7.4) so that the total amount was 200 μl (final dimethylsulfoxide concentration 1%). The reaction was performed at room temperature for 1 hour and terminated by conducting suction filtration with a cell harvester on a glass fiber filter plate. The filter plate made of glass fiber was washed with 50 mM Tris-hydrochloric acid buffer (pH 7.4), and after dried, a microplate liquid scintillation cocktail was added and the radioactivity was measured with a microplate scintillation counter. Radioactivity in the presence of 10 μM (+)-butaclamol hydrochloride was assumed as nonspecific binding.
as §1

[2] = molecular target: Human recombinant dopamine D2 receptor (Homo sapiens (Human), UniProt P14416); conditions: forskolin-stimulated D2 expressing CHO/DHFR(-) cells, control drug
Sequence of Human recombinant dopamine D2 receptor (P14416 whole entry): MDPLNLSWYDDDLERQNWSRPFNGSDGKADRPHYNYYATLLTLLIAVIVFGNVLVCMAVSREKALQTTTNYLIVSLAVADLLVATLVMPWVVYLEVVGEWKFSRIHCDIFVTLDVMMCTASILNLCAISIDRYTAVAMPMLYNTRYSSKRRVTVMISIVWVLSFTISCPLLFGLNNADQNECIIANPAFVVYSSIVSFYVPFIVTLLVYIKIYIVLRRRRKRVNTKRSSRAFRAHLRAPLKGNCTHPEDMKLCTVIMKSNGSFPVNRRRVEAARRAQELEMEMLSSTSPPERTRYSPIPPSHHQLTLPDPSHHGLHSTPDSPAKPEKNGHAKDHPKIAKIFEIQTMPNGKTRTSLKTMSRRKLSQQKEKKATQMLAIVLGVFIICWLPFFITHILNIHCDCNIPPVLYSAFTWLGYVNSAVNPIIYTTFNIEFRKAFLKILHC
Experimental: Partial agonistic activity on dopamine D2 receptor was evaluated by quantitatively determining cyclic AMP production inhibitory effect of a test compound in dopamine D2 receptor expression cells in which adenosine 3′,5′-cyclic monophosphate (cyclic AMP) production was induced by forskolin stimulation.
Human recombinant dopamine D2 receptor expressing Chinese hamster ovary/DHFR(−) cells were cultured in a culture medium (Iscove's Modified Dulbecco's Medium (IMDM culture medium), 10% fetal bovine serum, 50 I.U./ml penicillin, 50 μg/ml streptomycin, 200 μg/ml geneticin, 0.1 mM sodium hypoxanthine, 16 μM thymidine) at 37° C. and 5% carbon dioxide condition. Cells were seeded at 10^4 cells/well on a 96-well microtiter plate coated with poly-L-lysine and grown under the same condition for 2 days. Each well was washed with 100 μl of a culture medium (IMDM culture medium, 0.1 mM sodium hypoxanthine, 16 μM thymidine).

| inhibition at 0.3 µM (Serotonin (5-HT) uptake) | pKi [1] | pKi (Dopamine D2 receptor) | quantity of cyclic AMP as the maximum activity (well without test compound = 100%) [2] | Compound |
| --- | --- | --- | --- | --- |
| 91.6% | 8.29 | 8.32 |  | O=c1[nH]ccc2cc(OCCCN3CCN(c4cccc5sccc45)CC3)ccc12 [Example 40, 6-[3-(4-benzo[b]thiophen-4-yl-piperazin-1-yl)propoxy]-2H-isoquinolin-1-one] |
| 84.8% | 8.64 | 9.30 |  | Cc1cc(=O)[nH]c2cc(OCCCN3CCN(c4cccc5sccc45)CC3)ccc12 [Example 3, 7-[3-(4-benzo[b]thiophen-4-yl-piperazin-1-yl)propoxy]-4-methyl-1H-quinolin-2-one] |
| 92.6% | 8.52 | 9.40 |  | O=C1CCc2ccc(OCCCN3CCN(c4cccc5sccc45)CC3)cc2N1 [Example 10, 7-[3-(4-benzo[b]thiophen-4-yl-piperazin-1-yl)propoxy]-3,4-dihydro-1H-quinolin-2-one] |
| 89.1% | 8.19 | 9.22 |  | Cc1cc2ccc(OCCCN3CCN(c4cccc5sccc45)CC3)cc2[nH]c1=O [Example 5, 7-[3-(4-benzo[b]thiophen-4-yl-piperazin-1-yl)propoxy]-3-methyl-1H-quinolin-2-one] |
|  |  |  | about 10% | NCCc1ccc(O)c(O)c1 [dopamine] |
| 91% | 8.40 | 9.30 |  | O=c1ccc2ccc(OCCCN3CCN(c4cccc5sccc45)CC3)cc2[nH]1 [Example 7, 7-[3-(4-benzo[b]thiophen-4-yl-piperazin-1-yl)propoxy]-1H-quinolin-2-one] |
| 94% | 8.39 | 8.31 |  | CCN1CCc2cc(OCCCN3CCN(c4cccc5sccc45)CC3)ccc2C1=O [Example 27, 6-[3-(4-benzo[b]thiophen-4-yl-piperazin-1-yl)propoxy]-2-ethyl-3,4-dihydro-2H-isoquinolin-1-one] |

| Compound | inhibition at 0.3 µM (Serotonin (5-HT) uptake) | pKi [1] | pKi (Dopamine D2 receptor) | quantity of cyclic AMP as the maximum activity (well without test compound = 100%) [2] |
| --- | --- | --- | --- | --- |
| O=C1c2ccccc2CCN1CCCCCN1CCN(c2cccc3sccc23)CC1 [Example 24, 2-[5-(4-benzo[b]thiophen-4-yl-piperazin-1-yl)pentyl]-3,4-dihydro-2H-isoquinolin-1-one] | 97.5% | 8.64 | 8.30 |  |
| O=c1ccc2ccc(OCCCCN3CCN(c4cccc5sccc45)CC3)cc2[nH]1 [Example 1, 7-[4-(4-benzo[b]thiophen-4-yl-piperazin-1-yl)butoxy]-1H-quinolin-2-one] | 92.4% | 8.64 | 9.70 |  |
| Cc1cc(=O)[nH]c2cc(OCCCCN3CCN(c4cccc5sccc45)CC3)ccc12 [Example 4, 7-[4-(4-benzo[b]thiophen-4-yl-piperazin-1-yl)butoxy]-4-methyl-1H-quinolin-2-one] | 91% | 8.31 | 9.30 |  |
| CC1CC(=O)Nc2cc(OCCCCN3CCN(c4cccc5sccc45)CC3)ccc21 (stereo not shown) [Example 16, 7-[4-(4-benzo[b]thiophen-4-yl-piperazin-1-yl)butoxy]-4-methyl-3,4-dihydro-1H-quinolin-2-one] | 86.7% | 8.15 | 9.15 |  |
| O=c1c2ccccc2ccn1CCCCN1CCN(c2cccc3sccc23)CC1 [Example 34, 2-[4-(4-benzo[b]thiophen-4-yl-piperazin-1-yl)butyl]-2H-isoquinolin-1-one] | 94.2% | 8.82 | 8.92 |  |
